Holding throughout (assay type): cell-based
Assay [1] relates to neuron inside a human midbrain-like organoid. Kind of assay: Whole cell patch clamp recording of spontaneous postsynaptic currents in hMLO neurons. The note with it: for spontaneous excitatory postsynaptic currents (sEPSCs): neuron inside hMLO at day 80, CNQX and AP5 applied together (FIG. 4F, recording 2). How it is done: Whole cell patch clamp recording techniques were used to measure the intrinsic properties of neurons within human midbrain-like organoids. Each human midbrain-like organoid was placed in a chamber and submerged beneath continuously perfused artificial CSF (aCSF) saturated with 95% O2 and 5% CO2 at 30 to 32° C. Patch pipettes (2 to 4 MΩ) were filled with an intracellular solution containing (in mM): Potassium methanesulfonate 135, KCl 10, HEPES 10, EGTA 1 Na2ATP 2; 290 mOsm; pH was adjusted to between 7.2 to 7.4 with KOH. Whole cell recordings were performed using IR-DIC visualization techniques with an Olympus BX51WI upright microscope, using a ×60 water immersion lens. Signals were recorded using an MultiClamp 700B amplifier, filtered at 3 kHz using a Bessel filter, and digitized at 10 kHz with a Digidata 1322A analog-to-digital (A/D) board (Molecular Devices, Sunnyvale, CA). To measure Na^+ currents and K^+ currents, voltage steps (500 msec duration) were applied from a holding potential of −70 mV to a range of test potentials between −50 and +90 mV (10 mV increments). For excitability test, a series of current pulses (500 msec) of increasing amplitude (5 pA steps) were injected to make the current-firing frequency relationship. Spontaneous excitatory postsynaptic currents (sEPSCs) were collected at a holding potential of −70 mV. Evoked excitatory postsynaptic currents (eEPSCs) was induced by tungsten wire electrodes placed about 300 μm away from the recording neuron within the hMLO.
(In general: In patch-clamp work, channel activity is measured electrically.)

Assay [2] relates to human cerebral organoids (hCOs). Kind of assay: Neuromelanin-like granule formation in human cerebral organoids. The note with it: 50 μM for 10 days; human cerebral organoids (FIG. 7G).
Method: Human midbrain-like organoids were fixed in 4% paraformaldehyde (PFA) overnight, washed in PBS, embedded in paraffin block, and subsequently sectioned at 4 μm thickness. Next, hMLOsections were deparaffinized, hydrated with distilled water, and stained by Fontana-Masson staining kit (Abcam) according to manufacturer's protocol ([…] et al., 2011). Briefly, the sections were placed in ammoniacal silver solution and incubated in a 58 to 60° C. water bath for 30 to 60 minutes until the tissue sections had become yellowish/brown in colour. The tissue sections were washed with distilled water and incubated in gold chloride solution (0.2%) for 30 seconds. Next, the sections were incubated in gold chloride solution (0.2%) for 30 seconds and subsequently incubated with sodium thiosulfate solution (5%) for 2 minutes. Finally, the sections were incubated in nuclear fast red solution for 5 minutes for staining and mounting. Images were taken on an LSM710 confocal microscope or an Observer Z. 1 inverted microscope (Zeiss).
In assay [3] the test system is human midbrain-like organoids (hMLOs). The assay is described as follows: Neuromelanin-like granule formation in human midbrain-like organoids (bright field, Fontana-Masson staining). The note with it: for formation of neuromelanin-like granules: 50 μM treatment, bright field images and Fontana-Masson stained sections (FIG. 3G).
Method: For generation of human midbrain-like organoids, human embryonic stem cell lines were used at less than 40 passages. The human embryonic stem cells were dissociated from intact colonies to single cells with TrypLE Express (Life Technologies), and 10,000 cells were plated in each well of low-cell-adhesion 96-well culture plate with V-bottomed conical wells (Sumitomo Bakelite) to form uniform EBs in neuronal induction medium containing DMEM/F12:Neurobasal (1:1), 1:100 N2 supplement (Invitrogen), 1:50 B27 without vitamin A (Invitrogen), 1% GlutaMAX (Invitrogen), 1% minimum essential media-nonessential amino acid (Invitrogen), and 0.1% β-mercaptoethanol (Invitrogen) supplemented with 1 μg/ml Heparin (Sigma-Aldrich), 10 μM SB431542 (Stemgent), 200 ng/ml Noggin (Prospec), 0.8 μM CHIR99021 (Reagents Direct), and 10 μM ROCK inhibitor Y27632 (Calbiochem). ROCK inhibitor was added for the first 48 hours and neuronal induction medium was changed on day 2. On day 4, human midbrain-like organoids were cultured with addition of 100 ng/ml SHH-C25II (R&D Systems) and 100 ng/ml FGF8 (R&D Systems) for midbrain patterning. After 3 days, the human midbrain-like organoids started to extrude neuroectodermal buds, media were completely removed and immediately 30 μl of growth factor reduced matrigel was added in each well by pipetting using pre-chilled 200 μl pipette tip. The matrigel embedded midbrain-like organoid was placed into 37° C. incubator for 30 minutes to allow the matrigel to solidify, and was grown in tissue growth induction medium containing Neurobasal, 1:100 N2 supplement (Invitrogen), 1:50 B27 without vitamin A (Invitrogen), 1% GlutaMAX (Invitrogen), 1% minimum essential media-nonessential amino acid (Invitrogen), and 0.1% β-mercaptoethanol (Invitrogen) supplemented with 2.5 μg/ml Insulin (Sigma-Aldrich), 200 ng/ml Laminin (Sigma-Aldrich), 100 ng/ml SHH-C25II (R&D Systems), and 100 ng/ml FGF8 (R&D Systems) for 24 h. […]

`NC(CCCP(=O)(O)O)C(=O)O` (stereo not shown) [AP5]: the “spontaneous excitatory postsynaptic currents (sEPSCs)” value in assay [1] is on record as “blocked”. On the same count and under the same terms, the entry for `N#Cc1cc2[nH]c(=O)c(=O)[nH]c2cc1[N+](=O)[O-]` [CNQX] is “blocked”. For the compound `N[C@@H](Cc1ccc(O)c(O)c1)C(=O)O` [L-DOPA, L-3,4-dihydroxyphenylalanine], the “neuromelanin (NM)-like granules or coloured deposits” value in assay [2] is “did not show any neuromelanin (NM)-like granules”. The “formation of neuromelanin-like granules” value in assay [3] is reported as “accelerated”. For the same compound, the “distribution of neuromelanin-like granules” value in assay [3] (L-DOPA 50 μM, hMLO at day 35, untreated hMLO at the same day showed none) is given as “robust distribution of neuromelanin-like granules was observed”. For `NCCc1ccc(O)c(O)c1` [dopamine, 3,4-dihydroxyphenethylamine], the “formation of neuromelanin-like granules” value in assay [3] is on record as “accelerated”. Consider picrotoxin, for which the “spontaneous inhibitory postsynaptic currents (sIPSCs)” value in assay [1] (neuron inside hMLO at day 80 (FIG. 4F, recording 3)) is on record as “blocked”.

Source of the values: US12428623B2, “Generation of midbrain-specific organoids from human pluripotent stem cells” (AGENCY FOR SCIENCE, TECHNOLOGY AND RESEARCH, priority 2016, dated 2025).
